In US20250275924A1, “Anticholinergic Agents and Muscarinic Agonists for the Treatment of Demodex Related Conditions” (ATTILLAPS HOLDINGS INC., priority 2022, published 2025):
Where two headings read alike, the source gives them in different places.

How the values were obtained:
[1] = test system: Demodex mites; assay: in vitro assay of Demodex mite paralysis and/or killing (survival time)
Procedure: FIG. 1A-1E is a table summary of an in vitro assay of various agents on Demodex mites survival time and paralysis.
FIG. 1A-1E is a summary of various agents tested in an in vitro assay of Demodex mite paralysis and/or killing. The efficacy of various agents are evaluated in Demodex characterization and/or survival time experiments, including in terms of LT50 (time at which 50% of Demodex mites are killed) and/or associated time (in hours: min or total minutes).

[2] = oral paroxetine, rosacea; cited from earlier work
[3] = grouping of active agents in the summary, data in FIG. 1A-1E (not reproduced)

SMILES | paralyzes Demodex mites [1, 3] | kills Demodex mites [1, 3] | further results
CN(C)CCC(c1ccc(Cl)cc1)c1ccccn1 (centres unmarked) [chlorpheniramine] | paralyzes Demodex mites |  | 
Fc1ccc([C@@H]2CCNC[C@H]2COc2ccc3c(c2)OCO3)cc1 [paroxetine] | paralyzes Demodex mites |  | patients indicative of improved clinical symptoms [2]: 42.9%; tolerability [2]: well-tolerated; onset of Demodex mite paralysis ([1]; 1% paroxetine): within the first hour; period of Demodex mite paralysis ([1]; 1% paroxetine): at least 12 hours
CN1[C@@H]2CC[C@H]1C[C@@H](OC(c1ccccc1)c1ccccc1)C2 [benztropine] |  | kill Demodex mites | 
OCCOCCN1CCN(C2=Nc3ccccc3Sc3ccccc32)CC1 [quetiapine] |  |  | paralyzes Demodex mites [1]: paralyzes Demodex mites
COCCCC/C(=N\OCCN)c1ccc(C(F)(F)F)cc1 [fluvoxamine] |  | kill Demodex mites | 
CNC1(C)C2CCC(C2)C1(C)C (centres unmarked) [mecamylamine] |  | kill Demodex mites | 
CN(C)CCOC(c1ccccc1)c1ccccc1.Cn1c(=O)c2[nH]c(Cl)nc2n(C)c1=O [dimenhydrinate] | paralyzes Demodex mites |  | 
COc1ccc2c(c1)[C@]13CCCC[C@@H]1[C@H](C2)N(C)CC3 [dextromethorphan] |  | kill Demodex mites | 
CN(C)CCCN1c2ccccc2CCc2ccccc21 [imipramine] |  | kill Demodex mites | 
CNCCC=C1c2ccccc2CCc2ccccc21 [nortriptyline] | paralyzes Demodex mites |  | 
CC(NC(C)(C)C)C(=O)c1cccc(Cl)c1 (centres unmarked) [bupropion] |  | kill Demodex mites | 
CC(CN1c2ccccc2Sc2ccccc21)N(C)C (centres unmarked) [promethazine] |  | kill Demodex mites | 
Clc1ccc2c(c1)C(N1CCNCC1)=Nc1ccccc1O2 [amoxapine] | paralyzes Demodex mites |  | 
OC(CCN1CCCCC1)(c1ccccc1)C1CCCCC1 (centres unmarked) [trihexyphenidyl] | paralyzes Demodex mites |  | 
C[N+]12CCC(CC1)C(OC(=O)C(O)(c1ccccc1)c1ccccc1)C2 (centres unmarked) [clidinium] | paralyzes Demodex mites |  | 
CC(C)C(=O)Oc1ccc(CO)cc1[C@H](CCN(C(C)C)C(C)C)c1ccccc1 [fesoterodine] | paralyzes Demodex mites |  | 
